Patent publication US20230146455A1, “TREATMENT OF INFLAMMATORY DISEASES WITH PEPTIDES AND PHARMACEUTICAL COMPOSITIONS” (Yuyu Pharma, Inc., priority 2020, published 2023)
Several values for one entry are separate records, joined by “and”; a condition that tells them apart may be missing. Identical values can stand only once. Where a SMILES comes first, the peptide text is derived from it. [ ]: non-standard residue; d: D form. Hyp = O=C(O)[C@@H]1C[C@@H](O)CN1

System: IL-1 alpha
Test: Example 9 Luminex, LPS hPBMCs: IL-1 alpha
Type: cell-based, human
Conditions: for Concentration / conc/live cell: IL-1 alpha, replicates and Mean
Procedure: Treatment Human PBMCs were pretreated with YY-101, YDE-011 and YDE-043 or reference compound; Xiidra® at various concentration (ranging from 1 nM to 100 uM) for 2 h before stimulation. An equal volume of 0.5% DMSO was used as a vehicle control. Then, the cells were treated with LPS at 5 ug/ml. The supernatants from treated cells were harvested at 24 h and placed in a 96 well for Luminex cytokine & chemokine profiling using a Luminex 200 multiplex assay (Luminex; R&D system, USA).
The main study arm with triplicate wells per group in a 24-well plate: • 1. Blank • 2. PBMC: 0.5% DMSO • 3. PBMC+LPS (5 ug/ml) • 4. PBMC+YY-101 100 uM • 5. PBMC+YY-101 10 uM • 6. PBMC+YY-101 1 uM • 7. PBMC+YY-101 0.1 uM • 8. PBMC+YY-101 0.01 uM • 9. PBMC+LPS (5 ug/ml)+Xiidra®100 uM • 10. PBMC+LPS (5 ug/ml)+Xiidra® 10 uM • 11. PBMC+LPS (5 ug/ml)+Xiidra® 1 uM • 12. PBMC+LPS (5 ug/ml)+Xiidra®0.1 uM • 13. PBMC+LPS (5 ug/ml)+Xiidra®0.01 uM • 14. PBMC+LPS (5 ug/ml)+Xiidra®0.001 uM • 15. PBMC+LPS (5 ug/ml)+YY-101 100 uM • 16. PBMC+LPS (5 ug/ml)+YY-101 10 uM • 17. PBMC+LPS (5 ug/ml)+YY-101 1 uM • 18. PBMC+LPS (5 ug/ml)+YY-101 0.1 uM • 19. PBMC+LPS (5 ug/ml)+YY-101 0.01 uM • 20. PBMC+LPS (5 ug/ml)+YY-101 0.001 uM • 21. PBMC+LPS (5 ug/ml)+YDE-011 100 uM • 22. PBMC+LPS (5 ug/ml)+YDE-011 10 uM • 23. PBMC+LPS (5 ug/ml)+YDE-011 1 uM • 24. PBMC+LPS (5 ug/ml)+YDE-011 0.1 uM • 25. PBMC+LPS (5 ug/ml)+YDE-011 0.01 uM • 26. PBMC+LPS (5 ug/ml)+YDE-011 0.001 uM • 27. PBMC+LPS (5 ug/ml)+YDE-043 100 uM • 28. PBMC+LPS (5 ug/ml)+YDE-043 10 uM • 29. PBMC+LPS (5 ug/ml)+YDE-043 1 uM • 30. PBMC+LPS (5 ug/ml)+YDE-043 0.1 uM • 31. PBMC+LPS (5 ug/ml)+YDE-043 0.01 uM • 32. PBMC+LPS (5 ug/ml)+YDE-043 0.001 uM
Multiplex assay was used to measure 30 cytokines and chemokines. The 1:2, 1:10 and 1:200 diluted cell supernatant and serial dilution of the standard were dispensed into a 96 well plate at 50 ul/well. Then, the pre-mixed cocktail of antibody-coated magnetic beads was dispensed at 50 ul/well and incubated at room temperature for 2 h in a horizontal orbital microplate shaker at 800±500 rpm. The beads were washed using a magnetic device to prevent loss. The biotin-antibody was dispensed in 50 ul of each well and incubated at room temperature for 1 h in a shaker at 800±500 rpm. After washing, streptavidin-PE was added at 50 ul/well and incubated at room temperature for 30 min in a shaker under the same conditions. Finally, after washing, wash buffer (100 ul/well) was added to the plate and incubated in a shaker for 2 min. The Luminex™ 200 setting were set according to the manufacturer's protocol. The data was calculated with a standard five-parameter logistic nonlinear regression analysis of the data (xPonent software 4.2, USA). The levels of cytokine/chemokine are normalized to the live cell counts (1×10^5 cells/mL) and presented as concentrations per mL (pg/mL or ng/mL).

[1] = PBMC + LPS(5 ug/ml) + YY101 0.001 uM
[2] = PBMC + LPS(5 ug/ml) + YY101 0.001 uM, mean
[3] = PBMC + LPS(5 ug/ml) + YY101 0.01 uM
[4] = PBMC + LPS(5 ug/ml) + YY101 0.01 uM, mean
[5] = PBMC + LPS(5 ug/ml) + YY101 0.1 uM
[6] = PBMC + LPS(5 ug/ml) + YY101 0.1 uM, mean
[7] = PBMC + LPS(5 ug/ml) + YY101 1 uM
[8] = PBMC + LPS(5 ug/ml) + YY101 1 uM, mean
[9] = PBMC + LPS(5 ug/ml) + YY101 10 uM
[10] = PBMC + LPS(5 ug/ml) + YY101 10 uM, mean
[11] = PBMC + LPS(5 ug/ml) + YY101 100 uM
[12] = PBMC + LPS(5 ug/ml) + YY101 100 uM, mean
[13] = PBMC + YY101 0.01 uM (second group so labelled), no LPS
[14] = PBMC + YY101 0.01 uM (second group so labelled), no LPS, mean
[15] = PBMC + YY101 0.01 uM, no LPS, mean
[16] = PBMC + YY101 1 uM, no LPS, mean
[17] = PBMC + YY101 10 uM, no LPS, mean
[18] = PBMC + YY101 100 uM, no LPS, mean

## CC(C)C[C@H](NC(=O)CNC(=O)[C@H](CC(=O)O)NC(=O)[C@H](CCC(N)=O)NC(=O)CNC(=O)[C@@H]1C[C@@H](O)CN1)C(=O)N[C@@H](C)C(=O)NCC(=O)N1CCC[C@H]1C(=O)N[C@@H](CCCCN)C(=O)O [YY-101] (H-[Hyp]GQDGLAGPK-OH; N-terminus and C-terminus assumed)
[1]
  Concentration: 426.2 pg/mL and 461.9 pg/mL and 419.9 pg/mL
  conc/live cell: 74.8 pg/10^5 and 65.1 pg/10^5 and 63.6 pg/10^5
[2]
  Concentration: 436.0 pg/mL
  conc/live cell: 67.8 pg/10^5
[3]
  Concentration: 506.1 pg/mL and 475.9 pg/mL and 484.7 pg/mL
  conc/live cell: 79.1 pg/10^5 and 79.3 pg/10^5 and 79.5 pg/10^5
[4]
  Concentration: 488.9 pg/mL
  conc/live cell: 79.3 pg/10^5
[5]
  Concentration: 491.3 pg/mL and 481.8 pg/mL and 482.5 pg/mL
  conc/live cell: 79.2 pg/10^5 and 92.6 pg/10^5 and 77.8 pg/10^5
[6]
  Concentration: 485.2 pg/mL
  conc/live cell: 83.2 pg/10^5
[7]
  Concentration: 451.2 pg/mL and 427.3 pg/mL and 434.3 pg/mL
  conc/live cell: 71.6 pg/10^5 and 60.2 pg/10^5 and 70.0 pg/10^5
[8]
  Concentration: 437.6 pg/mL
  conc/live cell: 67.3 pg/10^5
[9]
  Concentration: 473.3 pg/mL and 470.7 pg/mL and 483.6 pg/mL
  conc/live cell: 78.9 pg/10^5 and 73.6 pg/10^5 and 63.6 pg/10^5
[10]
  Concentration: 475.9 pg/mL
  conc/live cell: 72.0 pg/10^5
[11]
  Concentration: 656.9 pg/mL and 616.5 pg/mL and 614.2 pg/mL
  conc/live cell: 104.3 pg/10^5 and 99.4 pg/10^5 and 122.8 pg/10^5
[12]
  Concentration: 629.2 pg/mL
  conc/live cell: 108.8 pg/10^5
[13]
  Concentration: 1.0 pg/mL and 5.3 pg/mL
  conc/live cell: 0.2 pg/10^5 and 0.9 pg/10^5
[14]
  Concentration: 3.1 pg/mL
  conc/live cell: 0.6 pg/10^5
PBMC + YY101 0.01 uM, no LPS
  Concentration: 1.0 pg/mL and 5.3 pg/mL
  conc/live cell: 0.2 pg/10^5 and 1.1 pg/10^5
[15]
  Concentration: 3.1 pg/mL
  conc/live cell: 0.6 pg/10^5
PBMC + YY101 1 uM, no LPS
  Concentration: 5.3 pg/mL
  conc/live cell: 1.0 pg/10^5
[16]
  Concentration: 5.3 pg/mL
  conc/live cell: 1.0 pg/10^5
PBMC + YY101 10 uM, no LPS
  Concentration: 31.7 pg/mL and 7.1 pg/mL
  conc/live cell: 5.0 pg/10^5 and 1.2 pg/10^5
[17]
  Concentration: 19.4 pg/mL
  conc/live cell: 3.1 pg/10^5
PBMC + YY101 100 uM, no LPS
  Concentration: 10.4 pg/mL and 5.3 pg/mL
  conc/live cell: 1.6 pg/10^5 and 0.8 pg/10^5
[18]
  Concentration: 7.9 pg/mL
  conc/live cell: 1.2 pg/10^5
At 100.iM, LPS 5 ug/mL 24 hrs
  LPS-induced IL-1a levels (in words): further increased
